Test results taken from patent publication US7294637B2 (Sepracor, Inc., priority 2000, dated 2007).
Like-named read-outs stand apart in the source and are kept apart here.

Experiments:
[1] = biological target: norepinephrine transporter (Homo sapiens, UniProt P23975); test: NE uptake: displacement of norephinephrine ligands in vitro (methods of Galli et al.); assay type: binding
serotonin transporter = serotonin transporter (Homo sapiens, UniProt P31645); test: 5-HT uptake: displacement of serotonin ligands in vitro (methods of Gu et al.); assay type: binding
dopamine transporter = dopamine transporter (Homo sapiens, UniProt Q01959); test: DA uptake: displacement of dopamine ligands in vitro (methods of Gu et al.)
[2] = NE Uptake, Uptake Profile (IC50, nM)
[3] = displacement of serotonin ligands in vitro, read-out: 5-HT Uptake, Uptake Profile (IC50)
[4] = DA Uptake, Uptake Profile (IC50, nM), displacement of dopamine ligands in vitro
[5] = 5-HT Uptake, Uptake Profile (IC50, nM)
[6] = read-out: NE Uptake, Uptake Profile (IC50)
[7] = read-out: DA Uptake, Uptake Profile (IC50), displacement of dopamine ligands in vitro

serotonin transporter, sequence (P31645 whole entry): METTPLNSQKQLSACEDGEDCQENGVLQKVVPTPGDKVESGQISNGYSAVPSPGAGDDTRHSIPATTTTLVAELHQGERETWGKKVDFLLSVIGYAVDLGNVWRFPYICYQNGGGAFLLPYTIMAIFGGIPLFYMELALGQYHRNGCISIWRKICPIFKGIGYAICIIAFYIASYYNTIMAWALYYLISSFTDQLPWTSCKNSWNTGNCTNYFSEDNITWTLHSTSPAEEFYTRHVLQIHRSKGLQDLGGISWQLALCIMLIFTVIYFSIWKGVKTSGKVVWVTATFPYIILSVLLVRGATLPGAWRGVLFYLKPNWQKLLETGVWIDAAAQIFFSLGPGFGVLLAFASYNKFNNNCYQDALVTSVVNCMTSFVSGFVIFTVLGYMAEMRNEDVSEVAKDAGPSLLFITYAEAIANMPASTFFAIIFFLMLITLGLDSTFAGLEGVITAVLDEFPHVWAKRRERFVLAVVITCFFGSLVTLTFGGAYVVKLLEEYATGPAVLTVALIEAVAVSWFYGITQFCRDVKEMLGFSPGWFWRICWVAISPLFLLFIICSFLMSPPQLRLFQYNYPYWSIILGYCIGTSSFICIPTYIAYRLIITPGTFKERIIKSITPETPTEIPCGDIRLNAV
dopamine transporter, sequence (Q01959 whole entry): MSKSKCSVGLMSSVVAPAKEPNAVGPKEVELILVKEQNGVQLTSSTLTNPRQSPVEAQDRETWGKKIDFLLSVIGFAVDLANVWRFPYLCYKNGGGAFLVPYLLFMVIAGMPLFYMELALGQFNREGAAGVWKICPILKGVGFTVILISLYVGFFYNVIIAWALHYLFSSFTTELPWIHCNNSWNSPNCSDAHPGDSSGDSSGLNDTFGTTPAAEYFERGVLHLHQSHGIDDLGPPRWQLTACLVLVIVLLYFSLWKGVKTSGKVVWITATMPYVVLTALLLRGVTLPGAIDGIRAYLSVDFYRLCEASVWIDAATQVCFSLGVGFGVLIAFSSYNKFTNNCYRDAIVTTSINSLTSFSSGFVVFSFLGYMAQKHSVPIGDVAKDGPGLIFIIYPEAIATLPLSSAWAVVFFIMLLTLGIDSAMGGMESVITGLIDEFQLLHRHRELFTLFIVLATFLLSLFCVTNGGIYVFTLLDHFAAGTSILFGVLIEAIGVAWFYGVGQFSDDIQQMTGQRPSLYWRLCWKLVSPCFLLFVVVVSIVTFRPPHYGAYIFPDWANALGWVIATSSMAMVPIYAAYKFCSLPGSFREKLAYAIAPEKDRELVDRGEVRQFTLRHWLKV
norepinephrine transporter, sequence (P23975 whole entry): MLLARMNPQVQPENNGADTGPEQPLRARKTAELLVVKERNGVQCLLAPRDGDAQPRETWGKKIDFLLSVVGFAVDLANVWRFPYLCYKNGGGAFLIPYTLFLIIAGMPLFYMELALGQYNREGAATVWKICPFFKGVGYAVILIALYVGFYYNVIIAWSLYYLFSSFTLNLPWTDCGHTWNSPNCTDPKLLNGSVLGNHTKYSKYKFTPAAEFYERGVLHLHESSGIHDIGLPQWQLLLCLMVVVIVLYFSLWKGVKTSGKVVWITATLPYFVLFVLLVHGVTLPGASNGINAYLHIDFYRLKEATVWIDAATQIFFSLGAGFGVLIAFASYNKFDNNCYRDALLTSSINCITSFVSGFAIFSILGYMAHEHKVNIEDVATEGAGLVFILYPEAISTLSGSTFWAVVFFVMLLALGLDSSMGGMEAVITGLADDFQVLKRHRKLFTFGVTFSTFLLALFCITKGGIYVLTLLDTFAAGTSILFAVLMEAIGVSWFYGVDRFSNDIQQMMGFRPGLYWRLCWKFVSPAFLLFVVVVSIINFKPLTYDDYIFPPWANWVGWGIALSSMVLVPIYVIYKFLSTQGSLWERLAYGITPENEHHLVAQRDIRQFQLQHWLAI

Structure (SMILES) | IC50 [1, 2] [nM] | IC50 (serotonin transporter; [3]) [nM] | IC50 (dopamine transporter; [4]) [nM] | IC50 (serotonin transporter; [5]) [nM] | IC50 [1, 6] [nM] | IC50 (dopamine transporter) [nM] | IC50 (dopamine transporter; [7]) [nM] | IC50 (serotonin transporter; read-out: 5-HT Uptake, Uptake Profile (IC50)) [nM]
OC(CN1CCCC(COc2ccccc2)C1)C1(c2ccc(Cl)cc2)CCC1 (stereo not drawn) [compound 21, 1-[1-(4-Chloro-phenyl)cyclobutyl]-2-(3-phenoxymethylpiperidin-1-yl)ethanol] | < 100 | < 1000 | < 100 |  |  |  |  | 
O=C(CN1CCCC(COc2ccc(C(F)(F)F)cc2)C1)C1(c2ccc(Cl)cc2)CCC1 (stereo not drawn) [compound 23, 1-[1-(4-Chlorophenyl)cyclobutyl]-2-[3-(4-trifluoromethyl-phenoxymethyl)piperidin-1-yl]ethanone] | < 1000 | > 1000 | < 100 |  |  |  |  | 
OC(CN1CCCC(COc2ccc(C(F)(F)F)cc2)C1)C1(c2ccc(Cl)cc2)CCC1 (stereo not drawn) [compound 24, 1-[1-(4-Chlorophenyl)cyclobutyl]-2-[3-(4-trifluoromethylphenoxymethyl)piperidin-1-yl]ethanol] | < 10 | < 1000 | < 10 |  |  |  |  | 
O=C(CN1CCCC(COc2ccccc2)C1)c1ccc(Cl)cc1 (stereo not drawn) [compound 32, 1-(4-Chloro-phenyl)-2-(3-phenoxymethyl-piperidin-1-yl)-ethanone] | < 1000 |  | > 1000 | > 1000 |  |  |  | 
OC(CN1CCCC(COc2ccccc2)C1)c1ccc(Cl)cc1 (stereo not drawn) [compound 33, 1-(4-Chloro-phenyl)-2-(3-phenoxymethyl-piperidin-1-yl)-ethanol] | < 1000 | < 1000 | < 100 |  |  |  |  | 
c1ccc(OCC2CCCN(CC3(c4ccccc4)CCC3)C2)cc1 (stereo not drawn) [compound 34, 3-Phenoxymethyl-1-(1-phenyl-cyclobutylmethyl)-piperidine] | < 1000 | < 1000 | < 1000 |  |  |  |  | 
CN(C[C@@H]1CCCN(CC2(c3ccc(Cl)cc3)CCC2)C1)c1ccccc1 [compound 35, {1-[1-(4-Chloro-phenyl)-cyclobutylmethyl]-piperidin-3-R-ylmethyl}-methyl-phenyl-amine] |  | > 1000 |  |  | > 1000 | > 1000 |  | 
FC(F)(F)c1ccc(OCCC2CCCN(CC3(c4ccc(Cl)cc4)CCC3)C2)cc1 (stereo not drawn) [compound 39, 1-[1-(4-Chloro-phenyl)-cyclobutylmethyl]-3-[2-(4-trifluoromethyl-phenoxy)-ethyl]-piperidine] | < 100 | > 1000 | < 10 |  |  |  |  | 
CC(C)(CN1CCCC(COc2ccc(C(F)(F)F)cc2)C1)c1ccc(Cl)cc1 (stereo not drawn) [compound 42, 1-[2-(chloro-phenyl)-2-methyl-propyl]-3-(4-trifluoromethyl-phenoxymethyl)-piperidine] |  | > 1000 |  |  | < 1000 |  | < 100 | 
COc1ccc(OCC2CCCN(CC3(c4ccccc4)CCC3)C2)cc1 (stereo not drawn) [compound 55, 3-(4-Methoxy-phenoxymethyl)-1-(1-phenyl-cyclobutylmethyl)piperidine] | > 1000 | > 1000 | < 1000 |  |  |  |  | 
FC(F)(F)c1ccc(OC[C@@H]2CCCN(CC3(c4ccc(Cl)cc4)CCC3)C2)cc1 [compound 76] | < 1000 |  | < 1000 | > 1000 |  |  |  | 
FC(F)(F)c1ccc(SCC2CCCN(CC3(c4ccc(Cl)cc4)CCC3)C2)cc1 (stereo not drawn) [compound 78] | < 1000 | > 1000 | < 1000 |  |  |  |  | 
CC(O)(CN1CCCC(COc2ccccc2)C1)c1ccc(Cl)cc1 (stereo not drawn) [compound 79, 2-(4-Chloro-phenyl)-1-(3-phenoxymethyl-piperidin-1-yl)-propan-2-ol] | < 1000 | < 100 | < 1000 |  |  |  |  | 
CC(C)(CN1CCCC(CO)C1)c1ccc(Cl)cc1 (stereo not drawn) [compound 80] |  | > 1000 | > 1000 |  | > 1000 |  |  | 
OC1CCCN(CC2(c3ccc(Cl)cc3)CCC2)C1 (stereo not drawn) [compound 89, 1-[1-(4-Chlorophenyl)cyclobutylmethyl]piperidin-3-ol] | < 1000 | > 1000 | < 1000 |  |  |  |  | 
FC(F)(F)c1ccc(CCC2CCCN(CC3(c4ccccc4)CCC3)C2)cc1 (stereo not drawn) [compound 93, 1-(1-phenyl-cyclobutylmethyl]-3-[2-(4-trifluoromethyl-phenyl)-ethyl]-piperidine] |  | < 1000 |  |  | > 1000 | > 1000 |  | 
FC(F)(F)c1ccc(CCC2CCCN(CC3(c4ccc(Cl)cc4)CCC3)C2)cc1 (stereo not drawn) [compound 95, 1-[1-(4-Chloro-phenyl)-cyclobutylmethyl]-3-[2-(4-trifluoromethyl-phenyl)-ethyl]-piperidine] |  | < 1000 | < 1000 |  | > 1000 |  |  | 
FC(F)(F)c1ccc(OCC2CN(CC3(c4ccc(Cl)cc4)CCC3)C2)cc1 [compound 105, methanesulfonic acid 1-[1-(4-chloro-phenyl)-cyclobutylmethyl]-3-(4-trifluoromethyl-phenoxymethyl)-azetidine] | < 100 | < 1000 | < 10 |  |  |  |  | 
FC(F)(F)c1ccc(COC2CCCN(CC3(c4ccc(Cl)cc4)CCC3)C2)cc1 (stereo not drawn) [compound 107, 1-[1-(4-Chloro-phenyl)-cyclobutylmethyl]-3-(4-trifluoromethyl-benzyloxy)-piperidine] | < 1000 | > 1000 | < 1000 |  |  |  |  | 

Structure (SMILES) | IC50 [1, 2] [nM] | IC50 (serotonin transporter; [3]) [nM] | IC50 (dopamine transporter; [4]) [nM] | IC50 (serotonin transporter; [5]) [nM] | IC50 [1, 6] [nM] | IC50 (dopamine transporter) [nM] | IC50 (dopamine transporter; [7]) [nM] | IC50 (serotonin transporter; read-out: 5-HT Uptake, Uptake Profile (IC50)) [nM]
CC(C)(CN1CCC[C@@H](COc2ccc(C(F)(F)F)cc2)C1)c1ccc(Cl)cc1 [compound 122] |  | > 1000 |  |  | > 1000 |  | < 1000 | 
Fc1ccc(OC[C@@H]2CCCN(CC3(c4ccc(Cl)cc4)CCC3)C2)cc1 [compound 133, (R)-1-[1-(4-Chloro-phenyl)-cyclobutylmethyl]-3-(4-fluoro-phenoxymethyl)-piperidine] | < 1000 |  | < 1000 | > 1000 |  |  |  | 
OC(CN1CCCC(COc2ccc(C(F)(F)F)cc2)C1)c1ccc(Cl)cc1 (stereo not drawn) [compound 136, 1-(4-Chloro-phenyl)-2-[3-(4-trifluoromethyl-phenoxymethyl)-piperidin-1-yl]-ethanol] | < 1000 | < 100 | < 1000 |  |  |  |  | 
OC(CN1CCCC(CCc2ccccc2)C1)c1ccc(Cl)cc1 (stereo not drawn) [compound 140, 1-(4-Chloro-phenyl)-2-(3-phenethyl-piperidin-1-yl)-ethanol] | < 100 | < 100 | < 100 |  |  |  |  | 
O=C(CN1CCC[C@@H](CCc2ccccc2)C1)c1ccc(Cl)cc1 [compound 145, (R)-1-(4-Chloro-phenyl)-2-(3-phenethyl-piperidin-1-yl)-ethanone] | < 1000 |  | < 1000 | < 1000 |  |  |  | 
Clc1ccc(C2(CN3CCCC(CCc4ccccc4)C3)CCC2)cc1 (stereo not drawn) [compound 147, 1-[1-(4-Chloro-phenyl)-cyclobutylmethyl]-3-phenethyl-piperidine] | < 100 | > 1000 | < 1000 |  |  |  |  | 
O=C(CN1CCCC(CCc2ccc(C(F)(F)F)cc2)C1)c1ccc(Cl)cc1 (stereo not drawn) [compound 150, 1-(4-Chloro-phenyl)-2-{3-[2-(4-trifluoromethyl-phenyl)-ethyl]-piperidin-1-yl}-ethanone] |  | > 1000 |  |  | > 1000 | > 1000 |  | 
O=C(CN1CCCC(CCc2ccc(C(F)(F)F)cc2)C1)C1(c2ccc(Cl)cc2)CCC1 (stereo not drawn) [compound 155, 1-[1-(4-Chloro-phenyl)-cyclobutyl]-2-{3-[2-(4-trifluoromethyl-phenyl)-ethyl]-piperidin-1-yl}-ethanone] | > 1000 | > 1000 | < 100 |  |  |  |  | 
FC(F)(F)c1ccc(OC2CCCN(CC3(c4ccc(Cl)cc4)CCC3)C2)cc1 (stereo not drawn) [compound 158] | > 1000 | > 1000 | < 1000 |  |  |  |  | 
FC(F)(F)c1ccc(OCC2CCCN(CC3(c4ccc(Cl)cc4)CCOCC3)C2)cc1 (stereo not drawn) [compound 159, 1-[4-(4-Chloro-phenyl)-tetrahydro-piran-4-ylmethyl]-3-(4-trifluoromethyl-phenoxymethyl)piperidine] | < 1000 | < 1000 | < 100 |  |  |  |  | 
CO[C@@H](CN1CCC[C@@H](COc2ccc(C(F)(F)F)cc2)C1)C1(c2ccc(Cl)cc2)CCC1 [compound 160] | > 1000 | < 1000 | < 100 |  |  |  |  | 
CO[C@H](CN1CCC[C@@H](COc2ccc(C(F)(F)F)cc2)C1)C1(c2ccc(Cl)cc2)CCC1 [compound 161] | < 1000 | < 1000 | < 10 |  |  |  |  | 
CO[C@@H](CN1CCC[C@H](COc2ccc(C(F)(F)F)cc2)C1)C1(c2ccc(Cl)cc2)CCC1 [compound 162] | > 1000 | < 1000 | < 100 |  |  |  |  | 
CO[C@H](CN1CCC[C@H](COc2ccc(C(F)(F)F)cc2)C1)C1(c2ccc(Cl)cc2)CCC1 [compound 163] | > 1000 | < 1000 | < 10 |  |  |  |  | 
COc1ccccc1C1(C(O)CN2CCCC(COc3ccc(C(F)(F)F)cc3)C2)CCC1 (stereo not drawn) [compound 164] | < 1000 | < 100 | < 10 |  |  |  |  | 
OC(CN1CCCC(COc2ccc(C(F)(F)F)cc2)C1)C1(c2ccc3c(c2)OCO3)CCC1 (stereo not drawn) [compound 165] | < 100 | < 100 | < 10 |  |  |  |  | 
OC(CN1CCCC(COc2ccc(C(F)(F)F)cc2)C1)C1(c2ccc(C(F)(F)F)cc2)CCC1 (stereo not drawn) [compound 166] | < 100 | > 1000 | < 10 |  |  |  |  | 
OC1(COc2ccc(C(F)(F)F)cc2)CCCN(CC2(c3ccc(Cl)cc3)CCC2)C1 (stereo not drawn) [compound 167, [1-(4-Chloro-phenyl)-cyclobutylmethyl]-3-(4-trifluoromethyl-phenoxymethyl)-piperidin-3-ol] |  |  | > 1000 |  | > 1000 |  |  | > 1000
FC(F)(F)c1ccc(OCC2CCCCN(CC3(c4ccc(Cl)cc4)CCC3)C2)cc1 (stereo not drawn) [compound 168, 1-[1-(4-Chloro-phenyl)-cyclobutylmethyl]-3-(4-trifluoromethyl-phenoxymethyl)-azepane] | < 1000 | > 1000 | < 100 |  |  |  |  | 
